The values below come from ChEMBL document CHEMBL5528067, “From Synergy to Monotherapy: Discovery of Novel 2,4,6-Trisubstituted Triazine Hydrazone Derivatives with Potent Antifungal Potency In Vitro and In Vivo” (J Med Chem, 2024).

For orientation: MIC80 means the lowest concentration that inhibits either 80% of growth or 80% of the strains tested, depending on the study. As a reminder, the IC50 is the midpoint of a concentration-inhibition curve. As usually defined, the half-life is the time needed for the level to fall by half in the phase considered.

Data set [1] can be described thus: Cytotoxicity against human HUVEC cells assessed as cell viability at 16 microg/ml measured after 24 hrs by CCK-8 assay relative to control. In kind it is toxicity, cell-based. Particulars: at 16 µg/mL, read-out: Activity.
Data set [2] deals with Candida albicans. Put plainly: Antifungal activity against FCZ-resistant Candida albicans SC5314 assessed as growth inhibition measured after 48 hrs incubation by CLSI based micro-dilution broth method. In kind it is functional. A general note: Broth dilution looks for growth in wells or tubes with falling amounts of substance.
The subject of data set [3] is [Candida] auris. Briefly: Antifungal activity against FCZ-resistant Candida auris 919 assessed as growth inhibition measured after 48 hrs incubation by CLSI based micro-dilution broth method. The class given is functional. Particulars: Candidozyma auris.
In data set [4] the test system is Candida albicans. Put plainly: In vivo antifungal activity against Candida albicans SC5314 infected in C57BL/6J mouse assessed as reduction in fungal burden in kidney at 10 mg/kg, po treated once a day for 2 days. In kind it is functional, organism-based. The conditions noted are these: time 2.0 day.
The test system of data set [5] is [Candida] auris. Put plainly: Antifungal activity against FCZ-resistant Candida auris 918 assessed as growth inhibition measured after 48 hrs incubation by CLSI based micro-dilution broth method. In kind it is functional. The conditions noted are these: Candidozyma auris.
For data set [6], the system named is Cryptococcus neoformans. Briefly: Antifungal activity against Cryptococcus neoformans 32609 assessed as growth inhibition measured after 48 hrs incubation by CLSI based micro-dilution broth method. In kind it is functional.
A short description of data set [7]: Hemolytic activity in rabbit Red blood cell assessed as hemolysis rate at 64 microg/ml incubated for 1 hr. The class given is toxicity, cell-based, Oryctolagus cuniculus, Erythrocyte. The conditions noted are these: red blood cells, at 64 µg/mL, read-out: Activity.
Data set [8] has as its system Candida albicans. Briefly: Antifungal activity against FCZ-resistant Candida albicans strain 901 assessed as growth inhibition in presence of fluconazole measured after 48 hrs incubation by CLSI based micro-dilution broth method. The class given is functional.
A further data set relates to Candida tropicalis. Briefly: Antifungal activity against Candida tropicalis 8915 assessed as growth inhibition measured after 48 hrs incubation by CLSI based micro-dilution broth method. In kind it is functional.
Data set [9] has as its system Candida albicans. Put plainly: Antifungal activity against FCZ-resistant Candida albicans strain 904 assessed as growth inhibition measured after 48 hrs incubation by CLSI based micro-dilution broth method. The class given is functional.
For data set [10], the system named is Candida albicans. Briefly: Synergistic antifungal activity against FCZ-resistant Candida albicans strain 901 assessed as fractional inhibitory concentration index measured after 48 hrs in presence of FCZ by CLSI based micro-dilution broth method. The class given is functional.
The subject of data set [11] is Nakaseomyces glabratus. Put plainly: Antifungal activity against Candida glabrata 537 assessed as growth inhibition measured after 48 hrs incubation by CLSI based micro-dilution broth method. In kind it is functional.
Data set [12] in a line: Cytotoxicity against human HUVEC cells assessed as cell viability measured after 24 hrs by CCK-8 assay. In kind it is toxicity, cell-based. (In general: Tetrazolium assays rely on reduction of a dye to a coloured formazan, in cell work by metabolically active cells.)
For data set [13], the system named is Candida albicans. Briefly: Antifungal activity against FCZ-resistant Candida albicans 10231 assessed as growth inhibition measured after 48 hrs incubation by CLSI based micro-dilution broth method. The class given is functional.
The subject of data set [14] is Candida albicans. Put plainly: Synergistic antifungal activity against FCZ-resistant Candida albicans strain 904 assessed as fractional inhibitory concentration index measured after 48 hrs in presence of FCZ by CLSI based micro-dilution broth method. In kind it is functional.
Data set [15] concerns Pichia kudriavzevii. Briefly: Antifungal activity against Candida krusei 4996 assessed as growth inhibition measured after 48 hrs incubation by CLSI based micro-dilution broth method. The class given is functional.
The subject of a further data set is Candida parapsilosis. Put plainly: Antifungal activity against Candida parapsilosis 22019 assessed as growth inhibition measured after 48 hrs incubation by CLSI based micro-dilution broth method. In kind it is functional. The conditions noted are these: Lodderomyces parapsilosis.
The subject of data set [16] is Candida albicans. Briefly: Antifungal activity against FCZ-resistant Candida albicans strain 904 assessed as growth inhibition in presence of fluconazole measured after 48 hrs incubation by CLSI based micro-dilution broth method. The class given is functional.
Data set [17] can be described thus: Hemolytic activity in rabbit Red blood cell assessed as hemolysis rate at 8 microg/ml incubated for 1 hr. In kind it is toxicity, cell-based, Oryctolagus cuniculus, Erythrocyte. Particulars: red blood cells, at 8 µg/mL, read-out: Activity.
Data set [18] deals with Candida albicans. Briefly: Antifungal activity against FCZ-resistant Candida albicans strains assessed as growth inhibition measured after 48 hrs incubation by CLSI based micro-dilution broth method. In kind it is functional.
For data set [19], the system named is Candida albicans. Briefly: Antifungal activity against FCZ-resistant Candida albicans strain 901 assessed as growth inhibition measured after 48 hrs incubation by CLSI based micro-dilution broth method. The class given is functional.
Data set [20] in a line: Metabolic stability in mouse liver microsomes assessed as intrinsic clearance measured per mg of protein upto 60 mins by LC-MS/MS analysis. The class given is ADME, Microsome. Particulars: read-out: CLH.
Data set [21] is described as follows: Metabolic stability in mouse liver microsomes assessed as half life measured upto 60 mins by LC-MS/MS analysis. In kind it is ADME, Microsome. In general terms: Liver microsomes are vesicles of endoplasmic reticulum, rich in cytochrome P450 enzymes.
Data set [22] deals with Cryptococcus neoformans. Briefly: Antifungal activity against FCZ-resistant Cryptococcus neoformans 32609 assessed as growth inhibition at 1 microg/ml measured at 24 hrs incubation by time growth assay. The class given is functional, organism-based. Particulars: dose 1.0 µg/ml.
The target in data set [23] is T1, Lanosterol 14-alpha demethylase (Candida albicans (strain SC5314 / ATCC MYA-2876) (Yeast), UniProt P10613). Put plainly: Inhibition of CYP51 in Candida albicans SC5314 assessed as accumulation of 14alpha-methylfecosterol at 4 microg/ml measured after 8 hrs by GC-MS analysis. Particulars: dose 4 µg/ml.
Data set [24] concerns the target T1, Lanosterol 14-alpha demethylase. Put plainly: Inhibition of CYP51 in Candida albicans SC5314 assessed as decrease in ergosterol biosynthesis at 4 microg/ml measured after 8 hrs by GC-MS analysis (reference value: 88.32%). Also noted: scale not given: the % may be the effect or the level left. The conditions noted are these: at 4 µg/mL.
The test system of data set [25] is Pichia kudriavzevii. Put plainly: Antifungal activity against FCZ-resistant Candida krusei 4996 assessed as growth inhibition at 32 microg/ml measured at 24 hrs incubation by time growth assay. In kind it is functional, organism-based. The conditions noted are these: dose 32.0 µg/ml.
Data set [26] concerns Candida albicans. Put plainly: Antifungal activity against FCZ-resistant Candida albicans SC5314 assessed as growth inhibition at 4 microg/ml measured at 12 hrs incubation by time growth assay. The class given is functional, organism-based. The conditions noted are these: dose 4.0 µg/ml.
The target of data set [27] is T1, Lanosterol 14-alpha demethylase. Briefly: Inhibition of CYP51 in Candida albicans SC5314 assessed as accumulation of eburicol at 4 microg/ml measured after 8 hrs by GC-MS analysis. The conditions noted are these: dose 4 µg/ml.
Data set [28] has as its system Candida albicans. Put plainly: In vivo antifungal activity against Candida albicans SC5314 infected in C57BL/6J mouse assessed as reduction in fungal burden in kidney at 0.5 mg/kg, po treated once a day for 2 days. The class given is functional, organism-based. Particulars: time 2.0 day.
Data set [29] has as its target T1, Lanosterol 14-alpha demethylase. Briefly: Inhibition of CYP51 in Candida albicans SC5314 assessed as accumulation of obtusifoliol at 4 microg/ml measured after 8 hrs by GC-MS analysis. Particulars: dose 4 µg/ml.
Data set [30] deals with Nakaseomyces glabratus. Put plainly: Antifungal activity against FCZ-resistant Candida glabrata 537 assessed as growth inhibition at 4 microg/ml measured at 12 hrs incubation by time growth assay. The class given is functional, organism-based. Particulars: dose 4.0 µg/ml.
Data set [31] relates to Candida albicans. Briefly: Antifungal activity against FCZ-resistant Candida albicans strains assessed as growth inhibition in presence of (E)-2-((4,6-Bis((4-fluorobenzyl)amino)-1,3,5-triazin-2-yl)hydrazineylidene)methyl)-4-nitrophenol measured after 48 hrs incubation by CLSI based micro-dilution broth method. The class given is functional.

In brackets after ≈: the same amount, converted by molar mass. Activity calls are given as the source filed them.

T1 sequence (P10613 whole entry): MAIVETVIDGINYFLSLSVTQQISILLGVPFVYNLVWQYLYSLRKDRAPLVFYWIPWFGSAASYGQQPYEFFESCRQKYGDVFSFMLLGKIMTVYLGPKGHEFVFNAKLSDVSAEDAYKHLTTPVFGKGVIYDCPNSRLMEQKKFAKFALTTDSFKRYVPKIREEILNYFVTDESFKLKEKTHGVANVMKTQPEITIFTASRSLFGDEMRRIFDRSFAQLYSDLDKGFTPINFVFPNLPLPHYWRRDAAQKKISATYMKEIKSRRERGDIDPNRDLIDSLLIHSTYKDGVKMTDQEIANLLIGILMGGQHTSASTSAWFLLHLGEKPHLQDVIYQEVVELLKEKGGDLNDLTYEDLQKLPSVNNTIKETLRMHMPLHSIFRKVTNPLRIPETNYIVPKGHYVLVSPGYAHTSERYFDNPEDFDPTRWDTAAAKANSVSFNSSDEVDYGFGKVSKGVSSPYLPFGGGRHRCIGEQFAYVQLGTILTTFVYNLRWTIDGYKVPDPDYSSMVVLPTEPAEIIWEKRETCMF

For `NCCOCCOCCNC(=O)Cc1ccc(Nc2nc(NCc3ccc(F)cc3)nc(NCC3CCCCC3)n2)cc1`, the viability at 24 h, 16 microg/ml in data set [1] was determined as 89.8%. For the same molecule, the MIC80 came to 16 µg/mL (≈ 26.9 µM) in the data set with Candida albicans [2]; 32 µg/mL (≈ 53.8 µM) in data set [Candida] auris [3]; 32 µg/mL (≈ 53.8 µM) in data set [Candida] auris [5]; 16 µg/mL (≈ 26.9 µM) with Cryptococcus neoformans [6]; 16 µg/mL in the data set with Candida albicans [8]; 32 µg/mL (≈ 53.8 µM) in the data set on Candida tropicalis. Further, the MIC80 is 32 µg/mL (≈ 53.8 µM) in the data set on Candida albicans [9]; 32 µg/mL (≈ 53.8 µM) in the data set with Nakaseomyces glabratus [11]; 32 µg/mL (≈ 53.8 µM) in the data set on Candida albicans [13]; 32 µg/mL (≈ 53.8 µM) in the data set on Pichia kudriavzevii [15]; 32 µg/mL (≈ 53.8 µM) in the data set with Candida parapsilosis; 8 µg/mL in the data set on Candida albicans [16]. Besides, the outcome in the data set on Candida albicans [4] was Active. In addition, the hemolysis at 1 h, 64 microg/ml in data set [7] came out at 3.48%. Also, the results for the “fractional inhibitory concentration index (FICI)” value in the data set on Candida albicans [10] and in the data set with Candida albicans [14] were 0.63 and 0.38, respectively. Further, the IC50 at 24 h in data set [12] was 48.2 µg/mL (≈ 81.1 µM).

In the case of `C[C@@H]1[C@H](O)[C@@H](C)/C=C/C=C/C=C/C=C/C=C/C=C/C=C/[C@H](O[C@@H]2O[C@H](C)[C@@H](O)[C@H](N)[C@@H]2O)C[C@@H]2O[C@](O)(C[C@@H](O)C[C@@H](O)[C@H](O)CC[C@@H](O)C[C@@H](O)CC(=O)O[C@H]1C)C[C@H](O)[C@H]2C(=O)O` [AMPHOTERICIN B], the hemolysis at 1 h, 8 microg/ml in data set [17] came to 50.7%.

Take `O=[N+]([O-])c1cccc(O)c1/C=N/Nc1nc(NCc2ccc(F)cc2)nc(NCc2ccc(F)cc2)n1`: the MIC80 with Candida albicans [18] was 4 µg/mL (≈ 7.9 µM); with Candida albicans [2], greater than 64 µg/mL; in data set [Candida] auris [3], greater than 64 µg/mL; in data set [Candida] auris [5] it was greater than 64 µg/mL; with Cryptococcus neoformans [6] it was greater than 64 µg/mL; with Candida albicans [8], 0.25 µg/mL. Further, the MIC80 with Candida tropicalis is greater than 64 µg/mL; in the data set with Candida albicans [9], 4 µg/mL (≈ 7.9 µM); with Nakaseomyces glabratus [11] it was 2 µg/mL (≈ 3.95 µM); in the data set on Candida albicans [13] it was greater than 64 µg/mL; in the data set with Pichia kudriavzevii [15] it was greater than 64 µg/mL; in the data set on Candida albicans [19], 4 µg/mL (≈ 7.9 µM). The MIC80 with Candida parapsilosis was greater than 64 µg/mL; with Candida albicans [16], 1 µg/mL. The “fractional inhibitory concentration index (FICI)” value with Candida albicans [10] was determined as 0.19; in the data set on Candida albicans [14], 0.38.

Consider `Cc1ncc2n1-c1ccc(Cl)cc1C(c1ccccc1F)=NC2` [MIDAZOLAM], for which the microsomal CLint in [20] worked out at 1120 µL/min/mg. Besides, in data set [21], the half-life is 3.09 min.

In the case of `OC(Cn1cncn1)(Cn1cncn1)c1ccc(F)cc1F` [FLUCONAZOLE], the viability at 24 h, 16 microg/ml in data set [1] is 82.8%. The MIC80 in the data set on Candida albicans [18] is greater than 64 µg/mL; with Candida albicans [2], 0.5 µg/mL (≈ 1.63 µM); in [Candida] auris [3], greater than 64 µg/mL; in [Candida] auris [5], greater than 64 µg/mL; with Cryptococcus neoformans [6], 2 µg/mL (≈ 6.53 µM); in the data set on Candida tropicalis, 0.5 µg/mL (≈ 1.63 µM). Besides, the MIC80 was greater than 64 µg/mL in the data set with Candida albicans [9]; 1 µg/mL (≈ 3.27 µM) in the data set with Nakaseomyces glabratus [11]; 64 µg/mL (≈ 209 µM) in the data set with Candida albicans [13]; 64 µg/mL (≈ 209 µM) with Pichia kudriavzevii [15]; greater than 64 µg/mL in the data set with Candida albicans [19]; 1 µg/mL with Candida albicans [31]. Also, in the data set with Candida parapsilosis, the MIC80 came out at 2 µg/mL (≈ 6.53 µM). The outcome in the data set with Cryptococcus neoformans [22] and in the data set with Nakaseomyces glabratus [30] was inactive. Moreover, the Activity result in data set [23] was “Active”; in data set [24], 2.91%; in data set [27] it was “Active”; in data set [29] it was “Active”. The hemolysis at 1 h, 64 microg/ml in data set [7] is 23.9%. Moreover, the result in the data set on Pichia kudriavzevii [25], with Candida albicans [26] and with Candida albicans [28] was Active.
